Like-named read-outs stand apart in the source and are kept apart here.
Columns and labels:
Assay in all cases: cells
NCI-H2286 = details: Homo sapiens, NCI-H2286, read-out: IC50 ARN22089
Method in brief: (§1)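 Luminescent ATP-based CellTiterGlo detection quantifies surviving cells. Treatment with compound lasts overnight at 37°C.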

P31/FUJ = details: Homo sapiens, read-out: IC50 ARN22089
Method in brief: as §1

HCT116 = details: Homo sapiens, HCT-116, read-out: IC50 ARN22089
Method in brief: as §1

SK-LU-1 = details: Homo sapiens, SK-LU-1, read-out: IC50 ARN22089
Method in brief: as §1

RKO = details: Homo sapiens, read-out: IC50 ARN22089
Method in brief: as §1

U2OS = details: Homo sapiens, read-out: IC50 ARN22089
Method in brief: as §1

MV4-11 = details: Homo sapiens, MV4-11, read-out: IC50 ARN22089
Method in brief: as §1

MOLT-4 = details: Homo sapiens, MOLT-4, read-out: IC50 ARN22089
Method in brief: as §1

[1] = test system: WM3248, SKMel3, A375, SW480, and SKM28; details: WM3248, SKMel3, A375, and SW480
Method in brief: as §1

M07e = details: M-07e, read-out: IC50 ARN22089
Method in brief: as §1

NCI-H1838 = details: Homo sapiens, NCI-H1838, read-out: IC50 ARN22089
Method in brief: as §1

NCI-H1581 = details: Homo sapiens, NCI-H1581, read-out: IC50 ARN22089
Method in brief: as §1

COR-L279 = details: Homo sapiens, COR-L279, read-out: IC50 ARN22089
Method in brief: as §1

NCI-H441 = details: Homo sapiens, NCI-H441, read-out: IC50 ARN22089
Method in brief: as §1

MKN-1 = details: Homo sapiens, MKN-1, read-out: IC50 ARN22089
Method in brief: as §1

NCI-H292 = details: Homo sapiens, NCI-H292, read-out: IC50 ARN22089
Method in brief: as §1

NCI-H2009 = details: Homo sapiens, NCI-H2009, read-out: IC50 ARN22089
Method in brief: as §1

SJSA-1 = details: Homo sapiens, SJSA-1, read-out: IC50 ARN22089
Method in brief: as §1

SK-N-FI = details: Homo sapiens, read-out: IC50 ARN22089
Method in brief: as §1

SKMel3 = details: Homo sapiens, SK-MEL3, read-out: IC50 Skmel3
Method in brief: as §1

MCAS = details: read-out: IC50 ARN22089
Method in brief: as §1

NCI-H2110 = details: NCI-H2110, read-out: IC50 ARN22089
Method in brief: as §1

Colo 205 = details: Homo sapiens, COLO 205, read-out: IC50 ARN22089
Method in brief: as §1

H1299 = details: Homo sapiens, NCI-H1299, read-out: IC50 ARN22089
Method in brief: as §1

H460 = details: Homo sapiens, NCI-H460, read-out: IC50 ARN22089
Method in brief: as §1

SW480 = details: Homo sapiens
Method in brief: as §1

RERF-LC-MS = details: read-out: IC50 ARN22089
Method in brief: as §1

RPMI 8226 = details: Homo sapiens, RPMI-8226, read-out: IC50 ARN22089
Method in brief: as §1

T84 = details: Homo sapiens, T84, read-out: IC50 ARN22089
Method in brief: as §1

PANC-1 = details: Homo sapiens, PANC-1, read-out: IC50 ARN22089
Method in brief: as §1

HEC-1-A = details: Homo sapiens, read-out: IC50 ARN22089
Method in brief: as §1

NCI-H1703 = details: Homo sapiens, NCI-H1703, read-out: IC50 ARN22089
Method in brief: as §1

MOLM-13 = details: Homo sapiens, MOLM-13, read-out: IC50 ARN22089
Method in brief: as §1

U87MG = details: Homo sapiens, U-87 MG, read-out: IC50 ARN22089
Method in brief: as §1

SK-OV3 = details: Homo sapiens, SK-OV-3, read-out: IC50 ARN22089
Method in brief: as §1

SCLC-21H = details: Homo sapiens, read-out: IC50 ARN22089
Method in brief: as §1

DV90 = details: Homo sapiens, DV-90, read-out: IC50 ARN22089
Method in brief: as §1

HCC1569 = details: Homo sapiens, HCC1569, read-out: IC50 ARN22089
Method in brief: as §1

MCF-7 = details: Homo sapiens, MCF7, read-out: IC50 ARN22089
Method in brief: as §1

A498 = details: Homo sapiens, A498, read-out: IC50 ARN22089
Method in brief: as §1

EFO-27 = details: Homo sapiens, EFO-27, read-out: IC50 ARN22089
Method in brief: as §1

CN(C)c1cccc(Nc2cc(-c3ccccc3)nc(C3CCNCC3)n2)c1 [ARN22089, N1,N1-dimethyl-N3-(6-phenyl-2-(piperidin-4-yl)pyrimidin-4-yl)benzene-1,3-diamine]
IC50 (NCI-H2286): 14 µM
IC50 (P31/FUJ): 14 µM
IC50 (HCT116): 5.2 µM
IC50 (SK-LU-1): 7.8 µM
IC50 (RKO): 3.9 µM
IC50 (U2OS): 11 µM
IC50 (MV4-11): 4.4 µM
IC50 (MOLT-4): 11 µM
IC50 activity against the more sensitive cell lines [1]: single-digit micromolar
IC50 (M07e): 11 µM
IC50 (NCI-H1838): 17 µM
IC50 (NCI-H1581): 24 µM
IC50 (COR-L279): 12 µM
IC50 (NCI-H441): 12 µM
IC50 (MKN-1): 12 µM
IC50 (NCI-H292): 12 µM
IC50 (NCI-H2009): 15 µM
IC50 (SJSA-1): 9.5 µM
IC50 (SK-N-FI): 11 µM
IC50 (SKMel3): 4.26 µM
IC50 (MCAS): 4.6 µM
IC50 (NCI-H2110): 21 µM
IC50 (Colo 205): 7 µM
IC50 (H1299): 11 µM
IC50 (H460): 8.5 µM
IC50 (SW480; SW480, read-out: IC50 ARN22089): 3.4 µM
IC50 (SW480; SW480, read-out: IC50 SW480): 8.61 µM
IC50 (RERF-LC-MS): 12 µM
IC50 (RPMI 8226): 5.8 µM
IC50 (T84): 5.3 µM
IC50 (PANC-1): 11 µM
IC50 (HEC-1-A): 9.5 µM
IC50 (NCI-H1703): 37 µM
IC50 (MOLM-13): 13 µM
IC50 (U87MG): 6.1 µM
IC50 (SK-OV3): 7.6 µM
IC50 (SCLC-21H): 5.4 µM
IC50 (DV90): 29 µM
IC50 (HCC1569): 11 µM
IC50 (MCF-7): 7.3 µM
IC50 (A498): 10 µM
IC50 (EFO-27): 12 µM

From article PMC9127750, “Structure-based design of CDC42 effector interaction inhibitors for the treatment of cancer” (Cell reports, 2022)
